# Laboratory results taken from PubChem BioAssay (NCI).
#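 Following 48 hours of exposure in 96-well plates, responses at five concentrations were used to interpolate endpoints linearly. Abbreviation: GI50, concentration required for 50% inhibition of growth. The concentration for full growth arrest is given as TGI.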
# Legend:
# Assay in all cases: NCI tumour cell line growth inhibition, 48 h
# [1] = system: SW-620 colon
# [2] = system: SK-OV-3 ovarian
# [3] = system: EKVX NSCLC
# [4] = system: SNB-75 CNS
# [5] = system: HOP-92 NSCLC
# [6] = system: MOLT-4 leukemia
# [7] = system: MCF7 breast
# [8] = system: HT29 colon
# [9] = system: CCRF-CEM leukemia
# [10] = system: HOP-62 NSCLC
# [11] = system: T-47D breast
# [12] = system: LOX IMVI melanoma
# [13] = system: MALME-3M melanoma
# [14] = system: 786-0 renal
# [15] = system: NCI-H522 lung
# [16] = system: MDA-MB-231 breast
# [17] = system: SK-MEL-2 melanoma
# [18] = system: DU-145 prostate
# [19] = system: SF-539 CNS
# [20] = system: SR leukemia
# [21] = system: U251 CNS
# [22] = system: MDA-MB-435
# [23] = system: KM12 colon
# [24] = system: OVCAR-5 ovarian
# [25] = system: NCI/ADR-RES ovarian
# [26] = system: NCI-H23 lung
# [27] = system: UACC-62 melanoma
# [28] = system: A549 NSCLC
# [29] = system: OVCAR-4 ovarian
# [30] = system: HS 578T breast
# [31] = system: UO-31 renal
# [32] = system: RXF 393 renal
# [33] = system: PC-3 prostate
# [34] = system: ACHN renal
# [35] = system: RPMI-8226 leukemia
# [36] = system: SK-MEL-5 melanoma
# [37] = system: SK-MEL-28 melanoma
# [38] = system: M14 melanoma
# [39] = system: HCT-116 colon
# [40] = system: NCI-H226 lung
# [41] = system: HCT-15 colon
# [42] = system: NCI-H460 lung
# [43] = system: CAKI-1 renal
# [44] = system: HL-60(TB) leukemia
# [45] = system: TK-10 renal
# [46] = system: SN12C renal
# [47] = system: COLO 205 colon
# [48] = system: UACC-257 melanoma
# [49] = system: IGROV1 ovarian
# [50] = system: SF-268 CNS
# [51] = system: OVCAR-8 ovarian
# [52] = system: BT-549 breast
# [53] = system: HCC-2998 colon
# [54] = system: A498 renal
# [55] = system: SNB-19 CNS
# [56] = system: SF-295 CNS
compound,measurement,setting,value
CNC(=O)c1cc(-n2ccc3cc(NC(=O)Nc4ccc(N5CCN(C)CC5)c(C(F)(F)F)c4)ccc32)ccn1,GI50,[1],3.41 µM
same,TGI,[1],7.11 µM
same,GI50,[2],4.21 µM
same,TGI,[2],7.75 µM
same,GI50,[3],3.46 µM
same,TGI,[3],6.88 µM
same,GI50,[4],1.2 µM
same,TGI,[4],4.98 µM
same,GI50,[5],1.22 µM
same,TGI,[5],4.68 µM
same,GI50,[6],0.744 µM
same,TGI,[6],2.91 µM
same,GI50,[7],2.3 µM
same,TGI,[7],6.34 µM
same,GI50,[8],0.938 µM
same,TGI,[8],3.59 µM
same,GI50,[9],2.54 µM
same,TGI,[9],16 µM
same,GI50,[10],3.41 µM
same,TGI,[10],7.46 µM
same,GI50,[11],3.65 µM
same,TGI,[11],9.08 µM
same,GI50,[12],2.68 µM
same,TGI,[12],5.95 µM
same,GI50,[13],3.2 µM
same,TGI,[13],6.71 µM
same,GI50,[14],2.03 µM
same,TGI,[14],5.31 µM
same,GI50,[15],> 25 µM
same,TGI,[15],> 25 µM
same,GI50,[16],3.48 µM
same,TGI,[16],7.81 µM
same,GI50,[17],4.33 µM
same,TGI,[17],7.95 µM
same,GI50,[18],3.97 µM
same,TGI,[18],7.52 µM
same,GI50,[19],1.2 µM
same,TGI,[19],4.53 µM
same,GI50,[20],0.479 µM
same,TGI,[20],2.85 µM
same,GI50,[21],2.43 µM
same,TGI,[21],5.48 µM
same,GI50,[22],3.67 µM
same,TGI,[22],7.17 µM
same,GI50,[23],0.866 µM
same,TGI,[23],3.88 µM
same,GI50,[24],3.57 µM
same,TGI,[24],7.74 µM
same,GI50,[25],5.3 µM
same,TGI,[25],13.7 µM
same,GI50,[26],3.87 µM
same,TGI,[26],8.32 µM
same,GI50,[27],4.15 µM
same,TGI,[27],8.22 µM
same,GI50,[28],3.58 µM
same,TGI,[28],7.36 µM
same,GI50,[29],3.65 µM
same,TGI,[29],8.62 µM
same,GI50,[30],2.03 µM
same,TGI,[30],7.26 µM
same,GI50,[31],4.27 µM
same,TGI,[31],8.56 µM
same,GI50,[32],0.633 µM
same,TGI,[32],1.75 µM
same,GI50,[33],3.6 µM
same,TGI,[33],9.56 µM
same,GI50,[34],3.85 µM
same,TGI,[34],7.22 µM
same,GI50,[35],0.886 µM
same,TGI,[35],4.01 µM
same,GI50,[36],4.28 µM
same,TGI,[36],7.79 µM
same,GI50,[37],2.96 µM
same,TGI,[37],6.38 µM
same,GI50,[38],2.95 µM
same,TGI,[38],6.09 µM
same,GI50,[39],1.7 µM
same,TGI,[39],4.87 µM
same,GI50,[40],> 25 µM
same,TGI,[40],> 25 µM
same,GI50,[41],0.796 µM
same,TGI,[41],3.48 µM
same,GI50,[42],4.1 µM
same,TGI,[42],8.4 µM
same,GI50,[43],4.15 µM
same,TGI,[43],8.3 µM
same,GI50,[44],1.44 µM
same,TGI,[44],6.33 µM
same,GI50,[45],4.39 µM
same,TGI,[45],8.16 µM
same,GI50,[46],3.53 µM
same,TGI,[46],7.56 µM
same,GI50,[47],4.21 µM
same,TGI,[47],8.75 µM
same,GI50,[48],3.97 µM
same,TGI,[48],7.6 µM
same,GI50,[49],4.12 µM
same,TGI,[49],8.44 µM
same,GI50,[50],3.3 µM
same,TGI,[50],7.43 µM
same,GI50,[51],4.27 µM
same,TGI,[51],8.27 µM
same,GI50,[52],2.7 µM
same,TGI,[52],5.75 µM
same,GI50,[53],3.53 µM
same,TGI,[53],7.05 µM
same,GI50,[54],3.61 µM
same,TGI,[54],7.07 µM
same,GI50,[55],3.49 µM
same,TGI,[55],7.23 µM
same,GI50,[56],0.492 µM
same,TGI,[56],1.11 µM
